What was measured:
Format in all cases: in vivo
[1] = tested on: transgenic mice overexpressing leptin (LepTg) under the high fat diet condition; assay: Test Example 1: effects to improve metabolism in transgenic mice overexpressing leptin under a high fat diet condition; conditions: 60% high fat diet, 50 mg/kg/day intraperitoneal once a day, four weeks; for weight of the adipose tissues: epididymal
Method: Eight-week old male wild type mice and transgenic mice overexpressing leptin (LepTg) (Ogawa et al. Diabetes 48: 1822-1829, 1999, prepared in Department of Endocrinology and Metabolism, Kyoto University) were divided into three treatment groups, respectively: “standard diet (SD)+vehicle (V)”, “60% high fat diet (HFD)+vehicle”, and “60% high fat diet+Compound 57”. The mice were kept for four weeks with ad libitum feeding, and the body weight and the food intake of the mice were measured. The vehicle and Compound 57 were administered to the mice by intraperitoneal injection once a day. The dosage of Compound 57 was 50 mg/kg/day. After the four weeks the mice were sacrificed and blood, epididymal adipose tissues, and the liver were collected. The weight of the adipose tissues, the liver weight, the liver triglyceride levels, and the plasma levels of glucose, insulin, total cholesterol (T-chol), triglyceride (TG), and nonesterified fatty acid (NEFA) were measured (n=5 for each group). The equivalent dosage of Compound 32 was tested in a similar manner (n=5 for each group).

[2] = tested on: transgenic mice overexpressing leptin (LepTg) having diet-induced obesity; assay: Test Example 4: effects to improve metabolism in LepTg mice having diet-induced obesity caused by a high fat diet; conditions: LepTg mice obese after four-week high fat diet, continued high fat diet, 50 mg/kg/day intraperitoneal once a day, further four weeks; for weight of the adipose tissues: epididymal
Method: Eight-week old male wild type mice and transgenic mice overexpressing leptin (LepTg) (see Test Example 1) were divided into two groups, respectively (n=4 and 12), and kept for four weeks under a standard diet (SD) or a high fat diet (HFD) condition. All the mice fed with the standard diet for the four weeks were assigned to the group “vehicle (V)” and fed with the standard diet for further four weeks, and then the body weight and the food intake of the mice were measured. The mice fed with the high fat diet for the four weeks were divided into three groups: “vehicle (V)”, “Compound 57”, and “Compound 32”, and fed with the high fat diet for further four weeks, and then the body weight and the food intake of the mice were measured. The vehicle, Compound 57, and Compound 32 were administered to the mice by intraperitoneal injection once a day. The each dosage of Compounds 57 and 32 was 50 mg/kg/day. Finally the mice were sacrificed and blood, epididymal adipose tissues, and the liver were collected. The weight of the adipose tissues, the liver weight, and the plasma levels of glucose and triglyceride were measured (n=4 for each group).

[3] = tested on: leptin-deficient Lepmkyo/Lepmkyo rats; assay: Test Example 6: effects to improve metabolism in leptin-deficient Lepmkyo/Lepmkyo rats; conditions: standard diet, 20 mg/kg/day intraperitoneal once a day, four weeks; for body weight: versus vehicle
Method: Lepmkyo/Lepmkyo rats cannot produce leptin due to a mutation in the leptin gene (Aizawa-Abe et al. Physiol Genomics 45: 786-793, 2013, prepared in Institute of Laboratory Animals, Graduate School of Medicine, Kyoto University). Eight-week old male Lepmkyo/Lepmkyo rats were divided into three treatment groups: “Vehicle (V)”, “Compound 57”, and “Compound 32”. The rats were kept for four weeks with ad libitum feeding of standard diet, and the body weight of the rats were measured. The vehicle, Compound 57, and Compound 32 were administered to the rats by intraperitoneal injection once a day. The each dosage of Compounds 57 and 32 was 20 mg/kg/day. After the four weeks the rats were sacrificed, blood was collected, and the plasma levels of glucose and insulin were measured (n =5 for each group).

Seipin KO rats = assay: Test Example 7: effects to improve metabolism in Seipin KO rats, a model of generalized lipodystrophy; conditions: standard diet, 20 mg/kg/day intraperitoneal once a day, four weeks
Method: Seipin KO rats have a mutation in the Seipin gene, the causative gene of human generalized lipodystrophy, and are used as a model of generalized lipodystrophy. The rats have substantially no white adipocyte and thus cannot produce leptin. The rats were prepared in Department of Endocrinology and Metabolism, Kyoto University. Eight-week old male Seipin KO rats were divided into three treatment groups: “Vehicle (V)”, “Compound 57”, and “Compound 32”. The rats were kept for four weeks with ad libitum feeding of standard diet, and the body weight of the rats were measured. The vehicle, Compound 57, and Compound 32 were administered to the rats by intraperitoneal injection once a day. The each dosage of Compounds 57 and 32 was 20 mg/kg/day. After the four weeks the rats were sacrificed, blood was collected, and the plasma levels of glucose and insulin were measured (n=3 for each group).

[4] = tested on: wild type rats having diet-induced obesity; assay: Test Example 8: effects to improve metabolism in rats having diet-induced obesity caused by a high fat diet; conditions: wild type rats obese after four-week high fat diet, continued high fat diet, 20 mg/kg/day intraperitoneal once a day, further four weeks; for weight of the adipose tissues: epididymal
Method: Eight-week old male wild type rats were divided into two groups (n =5 and 15) and kept for four weeks under a standard diet (SD) or a high fat diet (HFD) condition. All the rats fed with the standard diet for the four weeks were assigned to the group “vehicle (V)” and fed with the standard diet for further four weeks, and then the body weight of the rats was measured. The rats fed with the high fat diet for the four weeks were divided into three groups: “vehicle”, “Compound 57”, and “Compound 32”, and fed with the high fat diet for further four weeks, and then the body weight of the rats was measured. The vehicle, Compound 57, and Compound 32 were administered to the rats by intraperitoneal injection once a day. The each dosage of Compounds 57 and 32 was 20 mg/kg/day. Finally the rats were sacrificed, blood, epididymal adipose tissues, and the liver were collected, and the weight of the adipose tissues, the liver weight, and the plasma levels of glucose, insulin, total cholesterol, triglyceride, and nonesterified fatty acid were measured (n =5 for each group).

Q: What does the source list for `Cc1cc(F)ccc1-c1ccc(/N=N/c2cc(S(=O)(=O)[O-])c3ccccc3c2N)cn1.[Na+]` [Compound 32, 4-amino-3-[6-(4-fluoro-2-methylphenyl)pyridine-3-ylazo]naphthalene-1-sulfonic acid sodium salt]?
A: body weight [1]: did not increase; food intake [1]: did not increase; liver triglyceride levels [1]: did not increase; liver weight [1]: did not increase; plasma insulin levels [1]: did not increase; plasma level of nonesterified fatty acid [1]: did not increase; plasma level of total cholesterol [1]: did not increase; plasma level of triglyceride [1]: did not increase; random plasma glucose levels [1]: did not increase; weight of the adipose tissues [1]: did not increase; blood level of glucose [2]: decreased; blood level of triglyceride [2]: decreased; body weight [2]: decreased; food intake [2]: significantly decreased; weight of the adipose tissues [2]: significantly decreased; plasma insulin [3]: did not change; random plasma glucose levels [3]: did not change; body weight [3]: No difference; body weight (Seipin KO rats): did not change; plasma insulin (Seipin KO rats): did not change; random plasma glucose levels (Seipin KO rats): did not change; body weight [4]: decreased; plasma level of glucose [4]: decreased; plasma level of insulin [4]: decreased; plasma level of nonesterified fatty acid [4]: decreased; plasma level of total cholesterol [4]: decreased; plasma level of triglyceride [4]: decreased; weight of the adipose tissues [4]: decreased

Q: `Nc1c(/N=N/c2ccc(-c3cccc4c3sc3ccccc34)nc2)cc(S(=O)(=O)[O-])c2ccccc12.[Na+]` [Compound 57, 4-amino-3-(6-dibenzothiophene-4-ylpyridine-3-ylazo)naphthalene-1-sulfonic acid sodium salt] was tested. Which body weight [1] did it give?
A: Its body weight is “did not increase”.

Q: And the food intake [1]?
A: Its food intake is “did not increase”.

Q: And the liver triglyceride levels [1]?
A: Its liver triglyceride levels is “did not increase”.

Q: What about the liver weight [1] of the same compound?
A: Its liver weight is “did not increase”.

Q: What about the plasma insulin levels [1] of the same compound?
A: Its plasma insulin levels is “did not increase”.

Q: And the “plasma level of nonesterified fatty acid” value [1]?
A: Its value is “did not increase”.

Q: What about the “plasma level of total cholesterol” value [1] of the same compound?
A: Its value is “did not increase”.

Q: What about the “plasma level of triglyceride” value [1] of the same compound?
A: Its value is “did not increase”.

Q: And the “random plasma glucose levels” value [1]?
A: The value was “did not increase”.

Q: And the “weight of the adipose tissues” value [1]?
A: Its value is “did not increase”.

Q: What about the “blood level of glucose” value [2] of the same compound?
A: Its value is “decreased”.

Q: And the “blood level of triglyceride” value [2]?
A: The value was “decreased”.

Q: And the body weight [2]?
A: The body weight was “decreased”.

Q: What about the food intake [2] of the same compound?
A: The food intake was “significantly decreased”.

Q: What about the liver weight [2] of the same compound?
A: Its liver weight is “decreased”.

Q: And the “weight of the adipose tissues” value [2]?
A: The value was “significantly decreased”.

Q: And the plasma insulin [3]?
A: The plasma insulin was “did not change”.

Q: What about the “random plasma glucose levels” value [3] of the same compound?
A: The value was “did not change”.

Q: What about the body weight [3] of the same compound?
A: The body weight was “No difference”.

Q: And the body weight (Seipin KO rats)?
A: The body weight was “did not change”.

Q: And the plasma insulin (Seipin KO rats)?
A: Its plasma insulin is “did not change”.

Q: And the “random plasma glucose levels” value (Seipin KO rats)?
A: Its value is “did not change”.

Q: What about the body weight [4] of the same compound?
A: Its body weight is “decreased”.

Q: And the “plasma level of glucose” value [4]?
A: The value was “decreased”.

Q: And the “plasma level of insulin” value [4]?
A: The value was “decreased”.

Q: And the “plasma level of nonesterified fatty acid” value [4]?
A: Its value is “decreased”.

Q: And the “plasma level of total cholesterol” value [4]?
A: The value was “decreased”.

Q: And the “plasma level of triglyceride” value [4]?
A: The value was “decreased”.

Q: What about the “weight of the adipose tissues” value [4] of the same compound?
A: Its value is “decreased”.

Source: US9931351B2, “Method for improving leptin resistance” (Kyoto University, priority 2013, dated 2018)
